A short description of data set [1]: Dynamic vapor sorption (DVS) test. Type of data set: physicochemical. The following applies: for hygroscopicity determination: from mass increase under 95% relative humidity; for Weight change rate, Adsorption / Weight change rate, Desorption: 25° C. Here is the method: Dynamic vapor sorption tests were conducted using a type II crystal of compound (I) with1 equivalent of fumaric acid, a free-form type II crystal of the same, a free-form type I crystal of the same, a type V crystal of the same with 1 equivalent of fumaric acid, and a crystal of the same with 1 equivalent of L-tartaric acid obtained in the Examples and Reference Examples.
The dynamic vapor sorption test was conducted for measurement according to the following conditions.
Approximately 10 mg of each sample was packed in a dedicated quartz holder, and the weight of the sample at each humidity was continuously measured and recorded under the following conditions.

The nature of data set [2]: Solid stability test. The data set is classed as physicochemical. Here is the method:
The free-form type II crystals of the compound (I) and type II crystals thereof with 1 equivalent of fumaric acid obtained in the Examples and Comparative Examples were evaluated for solid stability after storage for 4 weeks. • Storage condition: 60° C. (closed system) • Storage period: 4 weeks • Stored amount: Approximately 30 mg • Storage container: Glass bottle
Approximately 1 mg of a sample was weighed, dissolved in approximately 1 mL of a liquid mixture of water/acetonitrile (1:1), and 5 μL of this solution was accurately measured. Changes in the amount of related substances (the amount of substances detected other compound (I)) were analyzed by HPLC by the following method. Hplc Analysis Method (Stability Test)
The amount of related substances in the sample solution was measured by HPLC analysis. Handling of the apparatuses, including data processing, was in accordance with the methods and procedures instructed for each apparatus. • Column: XSelect CSH C18 (4.6×150 mm, 3.5 μm) manufactured by Waters • UV detection: 246 nm • Column temperature: 40° C. • Flow rate: 1.0 mL/min • Sample cooler: 5° C. • Sample concentration: 1 mg/mL • Mobile phase A: Liquid mixture of 5 mmol/L ammonium formate buffer (pH 6.5)/acetonitrile (9:1) • Mobile phase B: Acetonitrile

Data set [3] is described as follows: Blood concentration measurement test. Type of data set: in vivo, female rats (Crl:CD (SD)). The following applies: rat; for AUC(0-t): read-out: AUC0-6hr. Here is the method: Blood concentration measurement tests were conducted for the type I crystal of compound (I), the type II crystal of compound (I), and the type II crystal of compound (I) with 1 equivalent of fumarate obtained in the Examples. Specifically, 0.5% HPMC containing 0.1N hydrochloric acid was used for the type I crystal of compound (I) and 0.5% HPMC was used for the type II crystal of compound (I) and the type II crystal of compound (I) with 1 equivalent of fumaric acid to convert each crystal into the compound (I) (free-form) in terms of molecular weight so as to prepare suspensions of 100 mg/10 mL and 300 mg/10 mL. These administration solutions were orally administered to female rats (Crl:CD (SD), Charles River Laboratories Japan, Inc.) kept under feeding conditions at a volume of 10 mL/kg body weight using an oral administration sonde. After administration, the rats were returned to the rat cage and their conditions were checked. Water and feeding were freely available in the cage. At 0.5, 1, 2, 4, and 6 hours after administration, the rats were anesthetized with isoflurane, and approximately 80 μL of blood was collected from the jugular vein using a heparin-coated syringe and an injection needle (25 G).
The collected blood was ice-cooled and plasma was separated by centrifugation. After the blood collection was completed, the rats were returned to the rat cage and the state after awakening of anesthesia was checked. After the final blood collection, the depth of isoflurane anesthesia was checked. Then, the limbs were fixed in a supine position with a small animal experiment holding apparatus, and the abdomen was opened such that each rat was euthanized by exsanguination through an incision in the abdominal aorta and vena cava.
AUC0-6 hr (Area under the blood concentration-time curve for 0 to 6 hours after administration calculated by the trapezoidal method), Cmax (maximum blood concentration), and Tmax (time to reach maximum blood concentration) were calculated from the concentration of the compound (I) in each plasma measured by the MRM method using LC/MS/MS and quantified from the calibration curve using Phoenix WinNonlin (v6.4.0,Certara USA, Inc.).

Where [4] appears, read: 60° C. (closed system), 4 weeks.
[5] abbreviates: female, Crl:CD (SD), plasma, po, 100 mg/kg.
Setting [6] is: oral, 300 mg/kg, listed as Type I crystal of compound (I) (with hydrochloric acid).
The mark [7] stands for this setting: oral, listed as type I crystal of compound (I) with hydrochloric acid.

The results in this text go back to US12492208B2, “Crystal of pyrimidine compound” (TAIHO PHARMACEUTICAL CO., LTD., priority 2020, dated 2025).

For orientation: Cmax means the maximum level reached in the sampled fluid or tissue. A word on the Tmax: it is the time at which the peak concentration occurs.

Where two headings read alike, the source gives them in different places.

Turning to `C=CC(=O)N1C[C@H](n2c(C#CC3CC3)c(C(=O)N[C@H](C)c3ccccc3)c3c(N)ncnc32)C[C@@H]1C` [crystal of compound (I) with 1 equivalent of L-tartaric acid] [7-((3R,5S)-1-acryloyl-5-methylpyrrolidin-3-yl)-4-amino-6-(cyclopropylethynyl)-N—((R)-1-phenylethyl)-7H-pyrrolo[2,3-d]pyrimidine-5-carboxamide], the hygroscopicity determination entry in data set [1] is given as “highly hygroscopic”. For the same molecule, the “Weight change rate, Adsorption” value in data set [1] (relative humidity 5%) is reported as 0.50%; in data set [1] (relative humidity 20%) it was 1.05%; in data set [1] (relative humidity 40%), 1.60%; in data set [1] (relative humidity 60%) it was 2.16%; in data set [1] (relative humidity 80%) it was 3.26%; in data set [1] (relative humidity 95%) it was 6.41%. The “Weight change rate, Desorption” value was 0.54% in data set [1] (relative humidity 5%); 1.16% in data set [1] (relative humidity 20%); 1.67% in data set [1] (relative humidity 40%); 2.38% in data set [1] (relative humidity 60%); 3.64% in data set [1] (relative humidity 80%); 6.41% in data set [1] (relative humidity 95%).

As for `C=CC(=O)N1C[C@H](n2c(C#CC3CC3)c(C(=O)N[C@H](C)c3ccccc3)c3c(N)ncnc32)C[C@@H]1C` [free-form type II crystal of compound (I)] [7-((3R,5S)-1-acryloyl-5-methylpyrrolidin-3-yl)-4-amino-6-(cyclopropylethynyl)-N—((R)-1-phenylethyl)-7H-pyrrolo[2,3-d]pyrimidine-5-carboxamide], in data set [2] (setting [4]), the “Amount of related substances after storage” value stood at 0.12%, the “Chemical purity after storage” value worked out at 99.88%, the “change in the powder X-ray diffraction pattern” value is “no change” and the “increase in related substances” value is listed as “almost no increase”. Besides, in data set [2] (before storage), the “Amount of related substances before storage” value is listed as 0.13% and the “Chemical purity before storage” value is on record as 99.87%. In addition, in data set [3] (oral), the “AUC 0-6 hr increase when the dose was increased from 100 mg/kg to 300 mg/kg” value is given as 1.5 times and the “Cmax increase when the dose was increased from 100 mg/kg to 300 mg/kg” value is recorded as 1.2 times. For the same molecule, in data set [3] (oral, 100 mg/kg), the AUC0-6hr worked out at 5.79 µM·h, the Cmax was determined as 1880 nM and the Tmax was 1.50 h. Also, in data set [3] (oral, 300 mg/kg), the AUC0-6hr is 8.53 µM·h, the highest concentration (Cmax) amounted to 2250 nM and the Tmax came out at 3.33 h. Also, in data set [1], the hygroscopicity determination result is listed as “almost non-hygroscopic”. Besides, in data set [1] (relative humidity 5%), the “Weight change rate, Adsorption” value was 0.01% and the “Weight change rate, Desorption” value came out at 0.01%. In data set [1] (relative humidity 20%), the “Weight change rate, Adsorption” value is on record as 0.02% and the “Weight change rate, Desorption” value is reported as 0.03%. In data set [1] (relative humidity 40%), the “Weight change rate, Adsorption” value was 0.05% and the “Weight change rate, Desorption” value is on record as 0.06%. In addition, in data set [1] (relative humidity 60%), the “Weight change rate, Adsorption” value amounted to 0.08% and the “Weight change rate, Desorption” value was 0.08%. In addition, in data set [1] (relative humidity 80%), the “Weight change rate, Adsorption” value was 0.10% and the “Weight change rate, Desorption” value is given as 0.11%. In data set [1] (relative humidity 95%), the “Weight change rate, Desorption” value was determined as 0.12%.

As for `C=CC(=O)N1C[C@H](n2c(C#CC3CC3)c(C(=O)N[C@H](C)c3ccccc3)c3c(N)ncnc32)C[C@@H]1C` [type V crystal of compound (I) with 1 equivalent of fumaric ] [7-((3R,5S)-1-acryloyl-5-methylpyrrolidin-3-yl)-4-amino-6-(cyclopropylethynyl)-N—((R)-1-phenylethyl)-7H-pyrrolo[2,3-d]pyrimidine-5-carboxamide], the hygroscopicity determination result in data set [1] is “almost non-hygroscopic”. In addition, the “Weight change rate, Adsorption” value was 0.01% in data set [1] (relative humidity 5%); 0.11% in data set [1] (relative humidity 20%); 0.21% in data set [1] (relative humidity 40%); 0.33% in data set [1] (relative humidity 60%); 0.47% in data set [1] (relative humidity 80%). Moreover, the “Weight change rate, Desorption” value in data set [1] (relative humidity 5%) was 0.06%; in data set [1] (relative humidity 20%), 0.16%; in data set [1] (relative humidity 40%), 0.27%; in data set [1] (relative humidity 60%), 0.39%; in data set [1] (relative humidity 80%) it was 0.51%; in data set [1] (relative humidity 95%), 0.59%.

Take `C=CC(=O)N1C[C@H](n2c(C#CC3CC3)c(C(=O)N[C@H](C)c3ccccc3)c3c(N)ncnc32)C[C@@H]1C` [free-form type I crystal of compound (I), 7-((3R,5S)-1-acryloyl-5-methylpyrrolidin-3-yl)-4-amino-6-(cyclopropylethynyl)-N—((R)-1-phenylethyl)-7H-pyrrolo[2,3-d]pyrimidine-5-carboxamide]: the Cmax in data set [3] (setting [5]) worked out at 2670 nM; in data set [3] (setting [6]), 2250 nM. Besides, the AUC(0-t) is 7.42 µM·h in data set [3] (setting [5]) and 7.11 µM·h in data set [3] (female, Crl:CD (SD), plasma, po, 300 mg/kg). Also, the Tmax in data set [3] (female, Crl:CD (SD), plasma, po, 100 mg/kg, read-out: Tmax) amounted to 0.75 h; in data set [3] (setting [6]) it was 3.25 h. In addition, the “AUC 0-6 hr increase when the dose was increased from 100 mg/kg to 300 mg/kg” value in data set [3] (setting [7]) is given as 1.0 times. Besides, in data set [3] (setting [7]), the “Cmax increase when the dose was increased from 100 mg/kg to 300 mg/kg” value is reported as 0.8 times. Moreover, the hygroscopicity determination entry in data set [1] is “almost non-hygroscopic”. Besides, the “Weight change rate, Adsorption” value is 0.01% in data set [1] (relative humidity 5%); 0.04% in data set [1] (relative humidity 20%); 0.10% in data set [1] (relative humidity 40%); 0.26% in data set [1] (relative humidity 60%); 0.50% in data set [1] (relative humidity 80%). Besides, the “Weight change rate, Desorption” value is 0.01% in data set [1] (relative humidity 5%); 0.04% in data set [1] (relative humidity 20%); 0.13% in data set [1] (relative humidity 40%); 0.60% in data set [1] (relative humidity 60%); 0.69% in data set [1] (relative humidity 80%); 0.72% in data set [1] (relative humidity 95%).
